The text below walks through data of the supplement of paper PMC10307832.

What all share (assay): relative viability (nuclei count vs DMSO), 5 days (fraction); higher = more cells survive
Compound in assay [1]: C1=CC(=CC=C1NC(=S)NNC2=C(C=C(C=C2[N+](=O)[O-])C(F)(F)F)[N+](=O)[O-])F [Kobe2602] + Cc1nc(NC(=O)N2CCC[C@H]2C(N)=O)sc1-c1ccnc(C(C)(C)C(F)(F)F)c1 [Alpelisib] (partner 2 µM)
The procedure, abridged: (§1)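 The day after seeding in 1536-well plates, lung cancer cell lines were treated by pin tool with a single drug, or with a fixed anchor-drug dose together with five library-drug doses (not always all listed) in √10 steps. After 5 days, a combined fix-and-stain solution (final 0.05% Triton X-100, 1% formaldehyde, 1 ug/ml Hoechst) was added. Nuclei counted on 4× images gave relative viability as treated counts over vehicle counts, reported as the median of duplicate plates.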

Compound in assay [2]: C1=CC(=CC=C1NC(=S)NNC2=C(C=C(C=C2[N+](=O)[O-])C(F)(F)F)[N+](=O)[O-])F [Kobe2602] + O=C(c1cc(Cc2n[nH]c(=O)c3ccccc23)ccc1F)N1CCN(C(=O)C2CC2)CC1 [Olaparib] (partner 8 µM)
Put shortly: as §1

Compound in assay [3]: COc1cc2nccc(Oc3ccc(NC(=O)C4(C(=O)Nc5ccc(F)cc5)CC4)cc3)c2cc1OC [Cabozantinib] + CS(=O)(=O)CCNCc1ccc(-c2ccc3ncnc(Nc4ccc(OCc5cccc(F)c5)c(Cl)c4)c3c2)o1 [Lapatinib] (partner 2 µM)
Put shortly: as §1

Compound in assay [4]: COc1cc2nccc(Oc3ccc(NC(=O)C4(C(=O)Nc5ccc(F)cc5)CC4)cc3)c2cc1OC [Cabozantinib] + CC(=O)Nc1cccc(-n2c(=O)n(C3CC3)c(=O)c3c(Nc4ccc(I)cc4F)n(C)c(=O)c(C)c32)c1 [Trametinib] (partner 0.02 µM)
Put shortly: as §1

As to IA-LM, the relative viability in assay [1] (first compound 0.6325 µM) was determined as 0.778; in assay [1] (first compound 2 µM) it was 0.602; in assay [1] (first compound 6.325 µM), 0.683; in assay [1] (first compound 20 µM), 0.751; in assay [2] (first compound 0.2 µM) it was 0.851; in assay [2] (first compound 0.6325 µM) it was 0.718. Also, the relative viability came out at 0.773 in assay [2] (first compound 2 µM); 0.894 in assay [2] (first compound 6.325 µM); 0.862 in assay [2] (first compound 20 µM); 0.92 in assay [3] (first compound 0.02 µM); 0.91 in assay [3] (first compound 0.06325 µM); 1.02 in assay [3] (first compound 0.2 µM). The values for the relative viability in assay [3] (first compound 0.6325 µM) and in assay [3] (first compound 2 µM) were 0.946 and 0.808, respectively.

For LC-2-ad, the relative viability stood at 0.846 in assay [1] (first compound 0.2 µM); 0.866 in assay [1] (first compound 0.6325 µM); 0.916 in assay [1] (first compound 2 µM); 0.883 in assay [1] (first compound 6.325 µM); 1.01 in assay [1] (first compound 20 µM); 0.693 in assay [2] (first compound 0.2 µM). For the same cell line, the relative viability in assay [2] (first compound 0.6325 µM) was 0.683; in assay [2] (first compound 2 µM), 0.708; in assay [2] (first compound 6.325 µM), 0.736; in assay [2] (first compound 20 µM) it was 0.682; in assay [4] (first compound 0.02 µM), 0.924; in assay [4] (first compound 0.06325 µM), 0.948. Further, the relative viability in assay [4] (first compound 0.2 µM) was 0.92; in assay [4] (first compound 0.6325 µM), 0.761; in assay [4] (first compound 2 µM), 0.48; in assay [3] (first compound 0.02 µM), 0.938; in assay [3] (first compound 0.06325 µM), 1.04; in assay [3] (first compound 0.2 µM), 0.876. In addition, the values for the relative viability in assay [3] (first compound 0.6325 µM) and in assay [3] (first compound 2 µM) were 0.622 and 0.253, respectively.

On to LCLC-97TM1, for which the relative viability in assay [1] (first compound 0.2 µM) is 0.26; in assay [1] (first compound 0.6325 µM), 0.26; in assay [1] (first compound 2 µM), 0.228; in assay [1] (first compound 6.325 µM), 0.202; in assay [1] (first compound 20 µM), 0.262; in assay [2] (first compound 0.2 µM) it was 0.365. Besides, the relative viability is 0.416 in assay [2] (first compound 0.6325 µM); 0.437 in assay [2] (first compound 6.325 µM); 0.383 in assay [2] (first compound 20 µM); 0.197 in assay [4] (first compound 0.02 µM); 0.236 in assay [4] (first compound 0.06325 µM); 0.214 in assay [4] (first compound 0.2 µM). In addition, the relative viability in assay [4] (first compound 0.6325 µM) was determined as 0.212; in assay [4] (first compound 2 µM), 0.19; in assay [3] (first compound 0.06325 µM) it was 1.21; in assay [3] (first compound 0.2 µM) it was 0.927; in assay [3] (first compound 0.6325 µM) it was 1.13; in assay [3] (first compound 2 µM), 1.09.

As for LCLC-103H, the relative viability in assay [1] (first compound 0.2 µM) turned out to be 0.897; in assay [1] (first compound 0.6325 µM), 0.944; in assay [1] (first compound 2 µM), 0.961; in assay [1] (first compound 6.325 µM), 1.02; in assay [1] (first compound 20 µM), 0.985; in assay [2] (first compound 0.2 µM), 0.775. Besides, the relative viability in assay [2] (first compound 0.6325 µM) turned out to be 0.793; in assay [2] (first compound 2 µM), 0.804; in assay [2] (first compound 6.325 µM) it was 0.762; in assay [2] (first compound 20 µM) it was 0.764; in assay [4] (first compound 0.02 µM) it was 0.716; in assay [4] (first compound 0.06325 µM) it was 0.709. For the same cell line, the relative viability in assay [4] (first compound 0.2 µM) came to 0.678; in assay [4] (first compound 0.6325 µM), 0.68; in assay [4] (first compound 2 µM), 0.667.

Regarding LK-2, the relative viability in assay [1] (first compound 0.2 µM) was 1.04; in assay [1] (first compound 0.6325 µM), 1.2; in assay [1] (first compound 2 µM), 1.26; in assay [1] (first compound 6.325 µM), 1.07; in assay [1] (first compound 20 µM), 1.04; in assay [2] (first compound 0.2 µM), 0.619. Further, the relative viability in assay [2] (first compound 0.6325 µM) was 0.766; in assay [2] (first compound 2 µM), 0.875; in assay [2] (first compound 6.325 µM) it was 0.596; in assay [2] (first compound 20 µM), 0.796; in assay [4] (first compound 0.02 µM), 0.678; in assay [4] (first compound 0.06325 µM) it was 0.836. For the same cell line, the relative viability came to 0.717 in assay [4] (first compound 0.2 µM); 0.863 in assay [4] (first compound 0.6325 µM); 0.781 in assay [4] (first compound 2 µM); 1.15 in assay [3] (first compound 0.06325 µM); 0.929 in assay [3] (first compound 0.2 µM); 0.948 in assay [3] (first compound 0.6325 µM). For the same cell line, the relative viability in assay [3] (first compound 2 µM) is 0.856.
